Experimental data reported in patent publication US20240360143A1, “[1,2,4]TRIAZOLO[4,3-A]PYRIMIDIN-7(8H)-ONE AS MITOCHONDRIAL PYRUVATE CARRIER INHIBITORS FOR USE IN THE TREATMENT OF CANCER” (MPC THERAPEUTICS SA, priority 2021, published 2024).

Key:
[1] = system: CD8 T cells (OT1 splenocytes); assay: In vitro priming of CD8 T cells (OT1 splenocytes), memory marker expression by flow cytometry; assay type: cell-based, mouse; conditions: day 7, highest doses
Procedure: OT1 splenocytes were cultured for 3 days at a concentration of 10^6 cells per mL in RPMI medium (Gibco 61870-01) supplemented with 10% FBS, (Gibco 10270-106), 1% Penicillin/Streptomycin (Gibco 15070-063), 50 μM ß-mercaptoethanol, 1% HEPES (Gibco 15630-080), 1× Non-essential amino acids (Gibco 11140-035), 1% L-glutamine (Gibco 25030-081), 1 mM Sodium Pyruvate (Gibco 11360-039). Cells were additionally supplemented with hIL-2 100 U/ml (Glaxo-IMB), ovalbumin N4 peptide (257-264) 1 μg/ml (model peptide antigen from ovalbumin) and either different concentrations of Compound 45 or 47 or with their solvent DMSO as a control. At day 3, splenocytes were collected, washed and split, and cells were cultured for 4 additional days with 100 U/ml hIL-2 and hIL-7 (Peprotech 200-07) supplemented either with Compound 45 or 47 or DMSO. At day 7, flow cytometry analyses were performed for surface marker expression.
To evaluate the effects of MPC inhibition on T cell differentiation, OTI splenocytes were cultured in the presence of 1 μg/ml ovalbumin-derived N4 peptide, 100 IU/ml recombinant human IL-2 (rhIL-2) and the MPC inhibitors Compound 45 or 47 or control DMSO for 3 days. The cells were cultured for 4 more days in the presence of 100 IU/ml IL-2 and 10 ng/ml rhIL-7 (FIG. 1A) and the inhibitors or DMSO. When analyzing the surface expression of the central memory marker CD62L (FIG. 1B) and the pro-survival receptor CD127 (FIG. 1C) by flow cytometry on day 7, an increase in cells treated with the highest doses of compounds of the invention was observed compared to DMSO.

[2] = target: T1, mitochondrial pyruvate carrier (MPC) (Homo sapiens, UniProt O95563+Q9Y5U8); assay: Seahorse Xfe24 pyruvate-dependent OCR in HeLa cells; assay type: cell-based; conditions: pyruvate-dependent OCR in presence of fCCP
T1 sequence (Q9Y5U8 1-109): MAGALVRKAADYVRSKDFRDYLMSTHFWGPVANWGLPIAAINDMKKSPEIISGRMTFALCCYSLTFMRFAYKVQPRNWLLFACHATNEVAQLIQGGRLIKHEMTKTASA
T1 sequence (O95563 1-127): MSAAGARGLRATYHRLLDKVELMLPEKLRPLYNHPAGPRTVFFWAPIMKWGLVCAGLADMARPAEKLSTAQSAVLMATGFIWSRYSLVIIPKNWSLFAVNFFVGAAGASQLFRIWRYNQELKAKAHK
Procedure: The inhibition of mitochondrial pyruvate carrier (MPC) by compounds of the invention have been tested as follows and their inhibitory activity was expressed as IC50s values.
Cells are plated in the customized Seahorse plates. For HeLa cells, seeding is at 4×10^4 cells/well in […] DMEM, 10% FBS, 1% pen/strep/glutamine. 3 wells are left blank (medium alone) for internal calibration. The assay cartridge is hydrated overnight at 37° C. in 1 ml/well XF Calibrant Solution.
Since 50 μl of compound of the invention will be injected into 450 μl washed cells, compounds are made up in assay medium at 10× the final desired concentration
For dose response analyses, compounds are tested at final concentrations 30, 5, 0.83, 0.14, 0.023 μM (1:6 serial dilutions from […])
Positive control: […] (the parent hit compound which gave rise to the actual series)
Negative control: Assay medium alone.
The seahorse reagent plate is prepared as follows and transfered to the Xfe24 analyser for the calibration step:
The medium is almost completely removed from the well without allowing cells to dry Cells are washed twice with 300 μl Assay Medium. 450 μl fresh Assay Medium is added to each well. The plate is transferred to the Xfe24 analyser for measurement of pyruvate-dependent OCR. All values are normalized to the initial basal respiration rate in each well which is measured prior to addition of compounds and designated as 100%. IC50 determination is based on the average of the 3 measurements made in the presence of fCCP, taking 30 μM parent hit compound as maximal inhibition and PBS/Ca/Mg as zero inhibition.

For O=c1cc(Cc2ccccc2)n2c(SCc3c(F)cccc3Cl)nnc2[nH]1 [Compound 45, 5-benzyl-3-[(2-chloro-6-fluorobenzyl)sulfanyl][1,2,4]triazolo[4,3-a]pyrimidin-7 (8H)-one], the “cells positive for central memory marker CD62L” value ([1]; vs DMSO (FIG. 1B)) was “increase”, the “cells positive for pro-survival receptor CD127” value ([1]; vs DMSO (FIG. 1C)) was “increase” and the IC50 [2] was 64 nM.
